Values joined by “and” are separate entries in the source; they are usually repeats but may differ in a detail not shown here. Equal values may be shown once.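 Briefly, cells in 96-well plates were exposed to five compound concentrations for 48 h, and endpoints were estimated by linear interpolation. Abbreviation: GI50, concentration required for 50% inhibition of growth. At the TGI there is no net growth.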 Where only a bound is given, the exact number is not on record here.

Drawing on PubChem BioAssay (NCI), this text covers TGI and GI50 for 12 compounds.

Experiment in all cases: NCI-60 cell line screen, 48 h
Assay [1] concerns CCRF-CEM leukemia.
Assay [2] relates to HCT-116 colon.
In assay [3] the test system is MALME-3M melanoma.
The subject of assay [4] is NCI-H522 lung.
Assay [5] has as its system SK-MEL-5 melanoma.
Assay [6] concerns SF-539 CNS.
Assay [7] relates to COLO 205 colon.
Assay [8] has as its system SR leukemia.
For assay [9], the system named is HT29 colon.
The subject of assay [10] is NCI-H226 lung.

Regarding `COc1cc(CC2C(=O)OCC2[C@@H](OC(C)=O)c2ccc3c(c2)OCO3)c(Br)c(OC)c1OC` (stereo not given in full), the TGI in [1], in assay [2], in [3], in [4], in assay [5] and in assay [6] was above 100 µM in each case. Further, the TGI in [7], in assay [8] and in assay [9] was above 100 µM throughout.

Consider `NC(CSC1(c2ccc(Cl)cc2)c2ccccc2-c2ccccc21)C(=O)O` (stereo not given), for which the TGI in [1] was above 100 µM; in assay [2], 34.6 µM; in assay [3], 38.5 µM; in [4], 30.4 µM; in assay [5] it was 30.6 µM; in [6], 48.5 µM. For the same compound, the TGI is 28.9 µM in assay [7], 67.5 µM in assay [10], 46.9 µM in [8] and above 100 µM in assay [9].

With `O=C(O)c1c[nH]c2c(ccc3[nH]cc(C(=O)O)c(=O)c32)c1=O`, the TGI in assay [2], in assay [3], in assay [4], in assay [5], in assay [6] and in assay [7] was above 100 µM each time. For the same compound, the TGI in assay [10], in [8] and in assay [9] was above 100 µM throughout.

On to `COC(=O)C1=Cc2cn(S(=O)(=O)c3ccc(C)cc3)c3cccc(c23)C(C=C(C)C)N1C(C)=O` (stereo not given), for which the TGI in [1] was 77.4 µM; in [2], above 100 µM; in assay [3], 64.6 µM; in assay [4], 20 µM; in assay [5], above 100 µM; in [6] it was above 100 µM. Also, the TGI in assay [7] is 18.3 µM; in assay [10] it was above 100 µM; in assay [8], above 100 µM; in assay [9], above 100 µM.

On to `COC1C(C)OC(OC2CC(C)(O)Cc3cc4c(c(O)c32)C(=O)c2c(O)cc3c(c2C4=O)OC2OC3(C)C(O)C(N(C)C)C2O)C(OC)C1(C)OC` (stereo not given), for which the GI50 was 0.0584 µM and 0.0612 µM in assay [1]; 0.00273 µM and 0.0132 µM in assay [2]; 0.0178 µM in assay [3]; 0.093 µM and 0.0186 µM in [4]; 0.038 µM and 0.0171 µM in assay [6]; 0.0198 µM in [10]. Moreover, the GI50 in assay [8] was 0.0114 µM; in [9], 0.00453 µM and 0.0379 µM. Further, the TGI in assay [1] was 0.872 µM and 1.32 µM; in assay [3], 0.383 µM and 0.0944 µM; in assay [10] it was 0.395 µM and 0.113 µM.

With `O=Cc1cn(S(=O)(=O)c2ccccc2)c2ccccc12`, the TGI in assay [1] was above 100 µM; in assay [2], 40.1 µM; in assay [3], above 100 µM; in assay [6] it was above 100 µM; in [10], above 100 µM; in [8], 67.1 µM. In assay [9], this compound showed a TGI above 100 µM.

For `N/C(=N/N=C/c1cccc(F)c1)NO`, the TGI in assay [1] was above 100 µM; in [2], above 100 µM; in assay [3] it was above 100 µM; in assay [4], 96.1 µM; in assay [5] it was 32.4 µM; in [6] it was 70 µM. Further, the TGI in [7], in assay [10], in assay [8] and in assay [9] was above 100 µM throughout.

With `Clc1ccc(Nc2ncnc3c2sc2ncccc23)c(Cl)c1`, the GI50 was 0.0218 µM in [1]; below 0.01 µM in [2]; 6.67 µM in assay [3]; below 0.0122 µM in assay [4]; 0.0254 µM in assay [5]; 0.0225 µM in assay [6]. The GI50 is 0.0573 µM in [7], 0.42 µM in [10], below 0.0187 µM in assay [8] and 0.0462 µM in assay [9]. For the same compound, the TGI in [1] is above 100 µM; in [2], above 100 µM; in [3], above 100 µM; in assay [4], above 100 µM; in assay [5], above 100 µM; in [6] it was 7.37 µM. Also, the TGI is above 25.8 µM in [7], above 100 µM in assay [10], above 100 µM in assay [8] and above 100 µM in assay [9].

Consider `CSCC(COC(C)=O)(CSC)c1ccncc1`, for which the TGI in assay [1], in [2], in [3], in [4], in assay [5] and in [6] was above 100 µM in each case. Moreover, the TGI in assay [7], in assay [8] and in [9] was above 100 µM each time.

For the compound `C=CCn1c(=O)c(C(=O)NC(=O)OCC)cn(C2CCCCC2)c1=O`, the TGI in assay [1], in assay [2], in assay [3], in [5], in [6] and in assay [7] was above 100 µM each time. In addition, the TGI in [10], in assay [8] and in assay [9] was above 100 µM throughout.

Regarding `CC/C(=C(/CC)c1ccc(O)cc1)c1ccc(O)cc1`, the GI50 was 4.92 µM in assay [2]; 5.54 µM in [3]; 5.79 µM in [4]; 3.02 µM in assay [5]; 5.84 µM in assay [6]; 6.31 µM in [7]. For the same compound, the GI50 was 14.6 µM in [10], 3.98 µM in [8] and 5.16 µM in [9]. For the same compound, the TGI in [2] came out at 15.9 µM; in assay [3], 25.1 µM; in assay [4], 23 µM; in [5], 12.9 µM; in assay [6], 19.7 µM; in assay [7], 19.7 µM. For the same compound, the TGI is 36 µM in assay [10], 29.6 µM in [8] and 17.9 µM in assay [9].

With `NCCCCCCCCCn1c2c(c3ccccc3c1=O)C(=O)c1ccccc1-2`, the GI50 in [1] is 4.14 µM; in assay [2], 6.5 µM; in assay [3], 9.17 µM; in assay [4], 8.83 µM; in assay [5] it was 8.4 µM; in assay [6], 9.83 µM. In addition, the GI50 in [7] was 10 µM; in assay [8] it was 1.55 µM; in [9], 8.5 µM. Besides, the TGI in assay [1] was above 50 µM; in [2], 17.2 µM; in [3] it was 21.8 µM; in assay [4] it was 24.4 µM; in assay [5], 17.7 µM; in assay [6], 19.3 µM. The values for the TGI in assay [7], in assay [8] and in assay [9] were 25 µM, above 50 µM and 27.1 µM, respectively.
